“Also recorded” adds a separate entry of the source. Counter-ions that a name gives are not always drawn. Like-named read-outs stand apart in the source and are kept apart here.
Assays:
[1] = tested on: AMPA receptor-mediated synaptic transmission in CA3; conditions: recordings following drug administration; recent study (Chen et al., 2020); cited from earlier work
129S6/SvEv mice [2] = assay: Contextual fear conditioning (CFC), 3-shock paradigm, freezing; format: in vivo, mouse; conditions: male 129S6/SvEv mice, 1 week prior to CFC stress, (R,S)-ketamine 30 mg/kg, prucalopride 3 mg/kg, combined 10 + 3 mg/kg
Experimental: (§1) Male and female 129S6/SvEvTac mice were purchased from Taconic (Hudson, NY) at 7 weeks of age. Female C57BL/6NTac mice were purchased from Taconic (Hudson, NY) at 7 weeks of age. Mice were housed 5 per cage in a 12-h (06:00-18:00) light-dark colony room at 22° C. All experiments were approved by the Institutional Animal Care and Use Committee (IACUC) at the New York Psychiatric Institute (NYSPI).
(§2) A 3-shock CFC paradigm was administered as previously described (Denny et al., 2014; Drew et al., 2010). Fear conditioning was conducted in chambers obtained from Coulborn Instruments (Allentown, PA) with internal dimensions of approximately 20 cm wide × 16 cm deep × 20.5 cm high. The chambers had metal walls on each side, clear plastic front and back walls and ceilings, and stainless-steel bars on the floor. A house light (CM1820 bulb, 28 V, 100 mA) mounted directly above the chamber provided illumination. Each chamber was located inside a larger, insulated, plastic cabinet that provided protection from outside light and noise. Each cabinet contained a ventilation fan that was operated during the sessions. A paper towel dabbed with lemon solution was placed underneath the chamber floor. […] All sessions were scored for freezing using FreezeFrame4 (Actimetrics, Wilmette, IL).

mice = conditions: cited from earlier work
C57BL/6 mice [3] = assay: Contextual fear conditioning (CFC), freezing; format: in vivo, mouse; conditions: female C57BL/6 mice; one week before CFC stress; (R,S)-ketamine 10 mg/kg, combined 10 + 1.5 mg/kg
Experimental: as §1, §2

129S6/SvEv mice [4] = assay: Forced swim test (FST), immobility time; format: in vivo, mouse
Experimental: The FST is typically used in rodents to screen for potential human antidepressants. […] In the FST, time spent immobile, as opposed to swimming, is used as a measure of depressive behavior.
The FST was administered as previously described (Brachman et al., 2016). Briefly, mice were placed into clear plastic buckets 20 cm in diameter and 23 cm deep filled ⅔ of the way with 22° C. water. Mice were videotaped from the side for 6 minutes and were exposed to the swim test on 2 consecutive days. Immobility time was scored by an experimenter blind to the experimental groups.

C57BL/6 mice [5] = assay: Novelty suppressed feeding (NSF); format: in vivo, mouse; conditions: female C57BL/6 mice; one week before CFC stress; (R,S)-ketamine 10 mg/kg, combined 10 + 1.5 mg/kg
Text: All food was removed from the home cage.

129S6/SvEv mice [6] = conditions: non-stressed female 129S6/SvEv mice; one hour prior to the OF; (R,S)-ketamine 10 mg/kg, prucalopride 1.5 mg/kg, combined 10 + 1.5 mg/kg
Experimental: (§3) A single injection of saline (0.9% NaCl), or (R,S)-ketamine (Fort Dodge Animal Health, Fort Dodge, IA) (10 mg/kg or 30 mg/kg), and/or prucalopride (SML1371, Sigma-Aldrich, St. Lois, MO) (1.5 mg/kg or 3 mg/kg), was administered once during the course of each experiment at approximately 6-8 months of age. All drugs were prepared in physiological saline and administered intraperitoneally (i.p.) in volumes of 0.1 cc per 10 mg body weight.
The MB assay was conducted in a clean cage (10.5 in × 5.5 in) containing soft pliable Beta Chip bedding (Northeastern Products Corp, Warrensburg, NY). The cage contained 16 marbles set up in 4 rows of 4 across. Mice were given 30 minutes to explore and bury. At the end of the assay, the percentage of marbles buried was calculated.

[7] = biological target: hERG (human Ether-a-go-go Related Gene) channels (Homo sapiens, UniProt Q12809); conditions: cited from earlier work
Chain of hERG (human Ether-a-go-go Related Gene) channels (Q12809 whole entry): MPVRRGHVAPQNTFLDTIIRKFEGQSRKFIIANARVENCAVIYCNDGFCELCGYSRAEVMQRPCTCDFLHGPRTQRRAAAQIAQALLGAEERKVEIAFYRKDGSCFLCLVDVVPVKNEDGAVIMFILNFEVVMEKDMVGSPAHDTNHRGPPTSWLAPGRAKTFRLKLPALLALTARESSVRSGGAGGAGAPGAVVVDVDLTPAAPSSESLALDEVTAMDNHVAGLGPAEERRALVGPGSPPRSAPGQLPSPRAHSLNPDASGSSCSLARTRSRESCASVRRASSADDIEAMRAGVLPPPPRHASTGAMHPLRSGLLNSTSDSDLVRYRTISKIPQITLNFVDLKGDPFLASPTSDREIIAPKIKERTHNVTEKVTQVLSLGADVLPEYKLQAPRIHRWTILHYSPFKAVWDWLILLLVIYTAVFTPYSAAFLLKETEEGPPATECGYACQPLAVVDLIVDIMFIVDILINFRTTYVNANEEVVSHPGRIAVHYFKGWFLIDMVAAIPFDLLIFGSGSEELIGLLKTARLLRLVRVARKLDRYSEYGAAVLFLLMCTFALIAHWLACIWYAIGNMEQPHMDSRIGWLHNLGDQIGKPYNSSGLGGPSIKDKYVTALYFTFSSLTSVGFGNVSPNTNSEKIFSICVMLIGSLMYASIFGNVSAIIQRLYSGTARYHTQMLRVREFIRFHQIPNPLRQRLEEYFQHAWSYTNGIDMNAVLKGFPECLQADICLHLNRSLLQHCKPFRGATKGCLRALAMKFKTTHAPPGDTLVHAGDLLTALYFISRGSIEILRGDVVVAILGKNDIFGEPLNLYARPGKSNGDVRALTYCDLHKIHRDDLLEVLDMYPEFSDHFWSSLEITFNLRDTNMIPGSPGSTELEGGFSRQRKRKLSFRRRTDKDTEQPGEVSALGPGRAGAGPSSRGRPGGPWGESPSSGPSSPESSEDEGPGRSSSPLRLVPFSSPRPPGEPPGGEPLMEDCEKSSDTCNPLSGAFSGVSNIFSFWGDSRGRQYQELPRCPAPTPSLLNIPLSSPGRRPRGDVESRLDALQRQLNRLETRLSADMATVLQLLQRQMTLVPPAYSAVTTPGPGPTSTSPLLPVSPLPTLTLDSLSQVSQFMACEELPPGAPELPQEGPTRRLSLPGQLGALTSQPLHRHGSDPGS

129S6/SvEv mice [8] = conditions: female 129S6/SvEv mice; 1 week prior to CFC stress; prucalopride 3 mg/kg
Experimental: as §3
Briefly, the maze is a plus-cross-shaped apparatus consisting of four arms, two open and two enclosed by walls, linked by a central platform at a height of 50 cm from the floor. Mice were individually placed in the center of the maze facing an open arm and were allowed to explore the maze for 5 minutes. The time spent in and the number of entries into the open arms was used as an anxiety index. Videos were scored using ANY-maze behavior tracking software (Stoelting, Wood Dale, IL).

129S6/SvEv mice [9] = assay: Open field (OF); format: in vivo, mouse; conditions: non-stressed female 129S6/SvEv mice; one hour prior to the OF; (R,S)-ketamine 10 mg/kg, prucalopride 1.5 mg/kg, combined 10 + 1.5 mg/kg
Experimental: The OF assay was administered as previously described (David et al., 2009). Briefly, motor activity was quantified in four Plexiglas open field boxes 43 ×43 cm^2 (MED Associates, St. Albans, VT). Two sets of 16 pulse-modulated infrared photobeams on opposite walls 2.5-cm apart recorded x-y ambulatory movements. Activity chambers were computer interfaced for data sampling at 100-ms resolution. The computer defined grid lines that dividing center and surround regions, with the center square consisting of four lines 11 cm from the wall.

[10] = male mice, given prior to a stressor, previous work
[11] = female 129S6/SvEv mice, 1 week prior to CFC stress, (R,S)-ketamine 10 mg/kg, prucalopride 1.5 mg/kg, combined 10 + 1.5 mg/kg
[12] = female mice, previous work, HCl
[13] = male mice, given prior to a stressor, previous work, monohydrochloride
[14] = female 129S6/SvEv mice, 1 week prior to CFC stress, (R,S)-ketamine 10 mg/kg, prucalopride 1.5 mg/kg, combined 10 + 1.5 mg/kg, monohydrochloride
[15] = female 129S6/SvEv mice, 1 week prior to CFC stress, prucalopride 3 mg/kg

## CNC1(c2ccccc2Cl)CCCCC1=O (racemic) [(R,S)-ketamine, (RS)-2-(2-chlorophenyl)-2-(methylamino)cyclohexanone]
[1]
  AMPA receptor-mediated synaptic transmission in CA3: alter AMPA receptor-mediated synaptic transmission in CA3
129S6/SvEv mice [2]
  Average freezing upon CFC re-exposure (fear) vs saline: effective at decreasing fear; also recorded: reduced freezing
mice; [10]
  Learned fear: attenuate learned fear
  Stress-induced anxiety-like behavior: does not prevent anxiety-like behavior
  Stress-related depressive-like behavior: prevent stress-related depressive-like behavior
mice; prior work, male mice
  Hyponeophagia in the NSF paradigm: not effective at reducing hyponeophagia
C57BL/6 mice [3]
  Freezing during CFC re-exposure vs saline: significantly increased
129S6/SvEv mice [4]; [11]
  Immobility time on day 1 of the FST vs saline: significantly reduced immobility time
  Immobility time on day 2 of the FST vs saline: significantly reduced immobility time
129S6/SvEv mice [4]; female 129S6/SvEv mice, 5 minutes after CFC stress, (R,S)-ketamine 10 mg/kg, prucalopride 1.5 mg/kg, combined 10 + 1.5 mg/kg
  Immobility time (behavioral despair), FST day 2, vs saline: significantly reduced behavioral despair
129S6/SvEv mice [4]; male 129S6/SvEv mice, 1 week prior to CFC stress, (R,S)-ketamine 30 mg/kg, prucalopride 3 mg/kg, combined 10 + 3 mg/kg
  Immobility time on day 2 of the FST vs saline: decreased immobility time
129S6/SvEv mice [4]; male 129S6/SvEv mice, 5 minutes after CFC stress, (R,S)-ketamine 30 mg/kg, prucalopride 3 mg/kg, combined 10 + 3 mg/kg
  Immobility (behavioral despair), FST day 2, vs saline: significantly reduced behavioral despair
C57BL/6 mice [5]
  Latency to feed in the OF (hyponeophagia), NSF: suppressed hyponeophagia

## OC1(CN2CCC(COc3noc4cccc(OC5CCOC5)c34)CC2)CCOCC1 (stereo not shown) [PF-04995274]
mice; [10]
  Learned fear: attenuate learned fear
  Stress-induced anxiety-like behavior: do not alter stress-induced anxiety-like behavior
  Stress-related depressive-like behavior: prevent depressive-like behavior

## CCCCN1CCC(CCC(=O)c2cc(Cl)c(N)cc2OC)CC1.Cl [RS-67,333, 1-(4-amino-5-chloro-2-methoxyphenyl)-3-[1(n-butyl)-4-piperidinyl]-1-propanone HCl]
mice; [12]
  Depressive-like behavior: not effective as a prophylactic; also recorded: does not attenuate learned fear or affect depressive-like behavior
  Learned fear: not effective as a prophylactic; also recorded: does not attenuate learned fear
mice; female mice, previous work
  Anxiety-like behavior: can protect against anxiety-like behavior
mice; [10]
  Learned fear: attenuates learned fear
  Stress-induced anxiety-like behavior: prevents anxiety-like behavior
  Stress-related depressive-like behavior: does not protect against depressive-like behavior
mice; prior work, female 129S6/SvEv mice, RS-67,333 10 mg/kg, HCl
  Hyponeophagia (NSF): effective as a prophylactic against hyponeophagia; also recorded: effective at reducing hyponeophagia

## COCCCN1CCC(NC(=O)c2cc(Cl)c(N)c3c2OCC3)CC1 [prucalopride, 4-amino-5-chloro-2,3-dihydro-N-[1-3-methoxypropyl)-4-piperidinyl]-7-benzofuran carboxamide monohydrochloride]
129S6/SvEv mice [6]
  Number of marbles buried, MB assay (perseverative behavior): significantly reduced
[7]
  Affinity for the hERG channels: no affinity
[1]
  AMPA receptor-mediated synaptic transmission in CA3: alter AMPA receptor-mediated synaptic transmission in CA3
129S6/SvEv mice [2]; monohydrochloride
  Average freezing upon CFC re-exposure (fear) vs saline: effective at decreasing fear; also recorded: reduced freezing
mice; [13]
  Learned fear: attenuate learned fear
  Stress-induced anxiety-like behavior: had no prophylactic effect; also recorded: do not alter stress-induced anxiety-like behavior
  Stress-related depressive-like behavior: decreased stress-induced depressive-like behavior; also recorded: prevent depressive-like behavior
mice; prior work, male mice
  Hyponeophagia in the NSF paradigm: not effective at reducing hyponeophagia
129S6/SvEv mice [8]
  Number of entries into the open arms of the EPM vs saline: increased
  Time in the open arms of the EPM vs saline: increased
129S6/SvEv mice [9]
  Distance travelled in the OF vs saline: significantly increased
129S6/SvEv mice [4]; [14]
  Immobility time on day 1 of the FST vs saline: significantly reduced immobility time
  Immobility time on day 2 of the FST vs saline: significantly reduced immobility time
129S6/SvEv mice [4]; [15]
  Immobility time on day 1 of the FST: reduced immobility time
  Immobility time on day 2 of the FST: reduced immobility time
129S6/SvEv mice [4]; male 129S6/SvEv mice, 1 week prior to CFC stress, (R,S)-ketamine 30 mg/kg, prucalopride 3 mg/kg, combined 10 + 3 mg/kg, monohydrochloride
  Immobility time on day 2 of the FST vs saline: decreased immobility time
129S6/SvEv mice [4]; male 129S6/SvEv mice, 1 week prior to CFC stress, prucalopride 1.5 mg/kg, monohydrochloride
  Immobility time on day 2 of the FST vs saline: decreased immobility time
